Assay results published in patent US10023565B2, “N,N′ substituted piperidinamine compounds, and preparation method and usage thereof” (Institute of Pharmacology and Toxicology Academy of …, priority 2013, dated 2018).
pIC50: −log10 of the molar value. Read-outs that look alike come from different tables or passages of the source.

Legend:
[1] = system: N87; test: Extended test against tumor cell lines (ATPlite); format: cell-based; settings: N87 (gastric cancer), 72 hours
Outline: (§1)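 5000 cells/well, 24 h attach, 37 °C. Cpd 4, 1, 0.25, 0.063, 0.016 μM final, n=3, 72 h. ATPlite lum; % survival vs medium control RLU.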

[2] = system: H460; test: Extended test against tumor cell lines (ATPlite); format: cell-based; settings: H460 (lung cancer), 72 hours
Outline: as §1

[3] = system: HT-29; test: Extended test against tumor cell lines (ATPlite); format: cell-based; settings: HT-29 (colorectal cancer), 72 hours
Outline: as §1

[4] = system: MRC5 (lung epithelial fibroblast); test: Extended test against tumor cell lines (ATPlite); format: cell-based; settings: MRC5 (normal cells), 72 hours
Outline: as §1

[5] = system: MIA-PaCa-2; test: Extended test against tumor cell lines (ATPlite); format: cell-based; settings: MIA-PaCa-2 (pancreatic cancer), 72 hours
Outline: as §1

[6] = system: BT/Lap^R1.0; test: Antitumor bioactivity evaluation, breast cancer cells (ATPlite); format: cell-based, human; settings: for inhibition at 5 µM: test sample 5 μM, 72 hours, read-out: Inhibitory Rate % BT/Lap^R1.0
Outline: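 5000 cells/well, 24 h adhesion; cpd 5 μM final ± lapatinib 1 μM final; 72 h, 37 °C; ATPlite luminescence; survival % = sample RLU/control RLU ×100; 5 replicate wells.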

Row | SMILES | Survival rate ([1]; 0.016 μM) [%] | Survival rate ([1]; 0.063 μM) [%] | Survival rate ([1]; 0.25 μM) [%] | Survival rate ([1]; 1 μM) [%] | Survival rate ([1]; 4 μM) [%] | Survival rate ([2]; 0.016 μM) [%] | Survival rate ([2]; 0.063 μM) [%] | Survival rate ([2]; 0.25 μM) [%] | Survival rate ([2]; 1 μM) [%] | Survival rate ([2]; 4 μM) [%] | Survival rate ([3]; 0.016 μM) [%] | Survival rate ([3]; 0.063 μM) [%] | Survival rate ([3]; 0.25 μM) [%] | Survival rate ([3]; 1 μM) [%] | Survival rate ([3]; 4 μM) [%] | Survival rate ([4]; 0.016 μM) [%] | Survival rate ([4]; 0.063 μM) [%] | Survival rate ([4]; 0.25 μM) [%] | Survival rate ([4]; 1 μM) [%] | Survival rate ([4]; 4 μM) [%] | also measured
1 | CSc1nccc(N2CCC(N(C)Cc3c(F)cccc3Cl)CC2)n1 [Example 37, N-methyl-N-(2-fluoro-6-chlorobenzyl)-N-[1-(2-methylthiopyrimidin-4-yl)piperidin-4-yl]amine] | 98.9 | 95.6 | 89.7 | 66.8 | 37.1 | 97.7 | 97.9 | 92.3 | 63.1 | 22 | 99.3 | 97.4 | 94.4 | 82.1 | 33.8 | 97.3 | 99.5 | 93.5 | 90.4 | 65.3 | Survival rate ([5]; 0.016 μM): 97.6%; Survival rate ([5]; 0.063 μM): 97.5%; Survival rate ([5]; 0.25 μM): 91.5%; Survival rate ([5]; 1 μM): 61.9%; Survival rate ([5]; 4 μM): 16%; pIC50 ([6]; Homo sapiens): 6.03; inhibition at 5 µM ([6]; Homo sapiens): 70.7%
2 | CSc1nccc(N2CCC(N(C)Cc3ccc(Cl)cc3Cl)CC2)n1 [Example 40, N-methyl-N-(2,4-dichlorobenzyl)-N-[1-(2-methylthiopyrimidin-4-yl)piperidin-4-yl]amine] | 97.9 | 92.7 | 89.7 | 71.5 | 36.3 | 98.7 | 98.7 | 93.7 | 75.9 | 26.3 | 100.6 | 105.4 | 102 | 89.2 | 41.2 | 93.6 | 88.9 | 91.9 | 86.5 | 67.6 | Survival rate ([5]; 0.016 μM): 94.6%; Survival rate ([5]; 0.063 μM): 94.8%; Survival rate ([5]; 0.25 μM): 90.2%; Survival rate ([5]; 1 μM): 77.3%; Survival rate ([5]; 4 μM): 20.6%; pIC50 ([6]; Homo sapiens): 5.77; inhibition at 5 µM ([6]; Homo sapiens): 68.1%
3 | CSc1nccc(N2CCC(N(C)Cc3ccc(C#N)cc3)CC2)n1 [Example 36, N-methyl-N-(4-cyanobenzyl)-N-[1-(2-methylthiopyrimidin-4-yl)piperidin-4-yl]amine] | 92.9 | 96.7 | 97.2 | 77.1 | 40.3 | 99.4 | 99.3 | 97.3 | 93.6 | 19.1 | 97.5 | 94.3 | 90.9 | 79.0 | 27.1 | 96.8 | 96.1 | 91.0 | 76.1 | 39.1 | Survival rate ([5]; 0.016 μM): 91.6%; Survival rate ([5]; 0.063 μM): 92.2%; Survival rate ([5]; 0.25 μM): 91.2%; Survival rate ([5]; 1 μM): 66.0%; Survival rate ([5]; 4 μM): 22.2%; pIC50 [6]: 5.83; pIC50 ([6]; Homo sapiens): 5.85; inhibition at 5 µM ([6]; Homo sapiens): 76.2%
4 | CSc1nccc(N2CCC(N(C)Cc3ccccc3Cl)CC2)n1 [Example 47, N-methyl-N-(2-chlorobenzyl)-N-[1-(2-methylthiopyrimidin-4-yl)piperidin-4-yl]amine] | 89.6 | 91.3 | 87.8 | 68.6 | 34.8 | 99 | 99.8 | 99.3 | 90.6 | 33.8 | 102.8 | 102.1 | 101.6 | 93.1 | 48.8 | 97.3 | 99.5 | 100.3 | 92.6 | 74.8 | Survival rate ([5]; 0.016 μM): 98.5%; Survival rate ([5]; 0.063 μM): 99.3%; Survival rate ([5]; 0.25 μM): 97.4%; Survival rate ([5]; 1 μM): 88.5%; Survival rate ([5]; 4 μM): 24.5%; pIC50 ([6]; Homo sapiens): 5.77; inhibition at 5 µM ([6]; Homo sapiens): 58.1%
5 | CSc1nccc(N2CCC(N(C)Cc3c(Cl)cccc3Cl)CC2)n1 [Example 49, N-methyl-N-(2,6-dichlorobenzyl)-N-[1-(2-methylthiopyrimidin-4-yl)piperidin-4-yl]amine] | 89.5 | 74.1 | 65.6 | 42.8 | 26 | 98.4 | 98.3 | 94.2 | 47.9 | 19.3 | 96.3 | 91 | 84.7 | 63.9 | 25.1 | 100.6 | 100.1 | 94.8 | 80.8 | 41.1 | Survival rate ([5]; 0.016 μM): 97.6%; Survival rate ([5]; 0.063 μM): 97.4%; Survival rate ([5]; 0.25 μM): 92.8%; Survival rate ([5]; 1 μM): 33.1%; Survival rate ([5]; 4 μM): 22.9%; pIC50 ([6]; Homo sapiens): 6.15; inhibition at 5 µM ([6]; Homo sapiens): 58.8%
